Measurements published in patent US20060183693A1, “Use of BIBN4096 in combination with other antimigraine drugs for the treatment of migraine” (Boehringer Ingelheim Pharma GmbH & Co. KG, priority 2001, published 2006).

System: facial skin vasodilation induced by electrical trigeminal ganglion stimulation
Experiment: Facial skin blood flow (vasodilation) after electrical trigeminal ganglion stimulation, laser Doppler flowmetry
Format: in vivo
Details: anaesthetized male Wistar rat, 0.1 mg/kg i.v. 5 min prior to second stimulation
Method: Measurement of Facial Skin Blood Flow
Fasted male wistar rats (strain CHbb:THOM, 280-320 g) were anaesthetized with sodium pentobarbitone (initially with 60 mg/kg i.p. and maintained throughout the experiment with an intraperitoneal infusion of 30 mg/kg/h through a 23 G needle using a solution of 10 mg/ml). […] The trachea was cannulated and the animals were artificially respired (80 strokes/min) with room air supplemented with oxygen. The body temperature was maintained at 37° C. by an automated heating pad. The left femoral artery and the left femoral vein were cannulated for the continuous measurement of arterial blood pressure and intravenous administration of test compounds, respectively. Neuromuscular blockade was achieved by intravenous administration of pancuronium bromide (1 mg/kg/0.5 ml, 5 min prior to each electrical stimulation). Heart rate was derived from the blood pressure signal. Blood pressure and heart rate were continuously monitored throughout the course of the experiment to assess the level of anaesthesia and to monitor the cardiovascular effects of the drugs used in this study.
The animals were placed in a stereotaxic frame and a longitudinal incision was made in the scalp. […] The position of the electrodes in the trigeminal ganglia were checked visually at the end of each experiment following removal of the brain. […]

With `CN1C[C@H](C(=O)N[C@]2(C)O[C@@]3(O)[C@@H]4CCCN4C(=O)[C@H](Cc4ccccc4)N3C2=O)C[C@@H]2c3cccc4[nH]cc(c34)C[C@H]21` [DHE, Dihydroergotamin] the “% of trigeminus stimulation” value (mean ± spread) was 60.4 ± 4.1% and the “% inhibition compared to control value” (vs saline control) was 27.0%.
